One molecule from publication PMC6222606, “Biodegradation of 7-Hydroxycoumarin in Pseudomonas mandelii 7HK4 via ipso-Hydroxylation of 3-(2,4-Dihydroxyphenyl)-propionic Acid” (Molecules : A Journal of Synthetic Chemistry and Natural …, 2018) can be followed below.

Structures are written as SMILES.

In the experiment the target is T1, HcdB (Pseudomonas mandelii, UniProt A0A385IUB9).
T1 sequence (A0A385IUB9 1-186): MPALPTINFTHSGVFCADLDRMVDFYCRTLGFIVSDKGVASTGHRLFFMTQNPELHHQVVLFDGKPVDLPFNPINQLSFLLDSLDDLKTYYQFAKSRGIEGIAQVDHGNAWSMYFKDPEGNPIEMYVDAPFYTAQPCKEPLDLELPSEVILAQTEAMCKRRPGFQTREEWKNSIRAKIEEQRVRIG
Kind of experiment: whole-cell bioconversion, UV-VIS of yellow meta-cleavage product; cells without hcdB inactive. It is filed as cell-based. To be noted: […] potassium phosphate pH […] °C, […] substrate.

Turning to `Oc1ccccc1O` [pyrocatechol], the “whole-cell bioconversion, UV-VIS of yellow meta-cleavage product; cells without” value was “HcdB is capable oxidizing pyrocatechol, 3-methylcatechol, 3-methoxycatechol, 4-methylcatechol”.
